Our source for the IC50 values is patent publication US20260258035A1, “FIVE-MEMBERED AND SIX-MEMBERED NITROGEN-CONTAINING COMPOUND, AND INTERMEDIATE, PREPARATION METHOD AND USE THEREOF” (HANGZHOU SYNRX THERAPEUTICS BIOMEDICAL TECHNOLOGY CO., LTD., priority 2022, published 2026).

Where two headings read alike, the source gives them in different places. Bounds are passed on as bounds.

The target in one experiment is PARG (Homo sapiens, UniProt Q86W56). Nature of the experiment: Biochemical assay (PARG, TFMU-ADPr substrate). Particulars: PARG, TFMU-ADPr substrate.
The test system of the next experiment is HCC1806. Put plainly: Cell viability assay (CellTiter-Glo). The experiment is classed as cell-based, Human. The settings on record: Homo sapiens, HCC1806, 168 h, read-out: IC50 (nM) in cell viability assay. For orientation: In ATP-based viability assays light output follows the ATP content of the culture.

Sequence of PARG (Q86W56 whole entry): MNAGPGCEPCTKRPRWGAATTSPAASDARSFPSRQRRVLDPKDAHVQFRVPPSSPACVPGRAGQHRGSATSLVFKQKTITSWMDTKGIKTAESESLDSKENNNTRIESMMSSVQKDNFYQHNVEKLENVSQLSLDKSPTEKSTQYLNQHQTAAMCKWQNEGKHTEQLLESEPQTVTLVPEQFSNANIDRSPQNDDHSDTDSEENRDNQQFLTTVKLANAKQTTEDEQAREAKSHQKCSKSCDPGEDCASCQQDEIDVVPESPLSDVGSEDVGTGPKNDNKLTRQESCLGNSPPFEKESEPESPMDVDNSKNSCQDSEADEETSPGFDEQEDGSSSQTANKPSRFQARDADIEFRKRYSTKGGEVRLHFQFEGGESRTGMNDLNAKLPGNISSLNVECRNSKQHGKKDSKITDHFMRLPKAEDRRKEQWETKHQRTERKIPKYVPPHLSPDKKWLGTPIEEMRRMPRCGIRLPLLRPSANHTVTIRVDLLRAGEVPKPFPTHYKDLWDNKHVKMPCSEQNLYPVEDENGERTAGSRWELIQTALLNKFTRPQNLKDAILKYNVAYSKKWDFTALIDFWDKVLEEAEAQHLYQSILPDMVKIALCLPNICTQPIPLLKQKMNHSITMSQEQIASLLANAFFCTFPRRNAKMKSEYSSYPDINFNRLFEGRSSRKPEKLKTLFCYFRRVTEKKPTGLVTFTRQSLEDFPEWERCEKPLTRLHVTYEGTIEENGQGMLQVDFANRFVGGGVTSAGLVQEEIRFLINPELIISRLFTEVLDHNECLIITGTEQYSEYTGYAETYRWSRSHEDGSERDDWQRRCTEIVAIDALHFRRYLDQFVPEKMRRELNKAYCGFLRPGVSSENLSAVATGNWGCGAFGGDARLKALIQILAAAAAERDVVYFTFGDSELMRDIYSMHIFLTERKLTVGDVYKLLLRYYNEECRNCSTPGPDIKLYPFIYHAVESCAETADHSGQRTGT

As usually defined, the IC50 is the concentration that inhibits the measured activity by half. Regarding `CC1(NS(=O)(=O)c2cc(N3CCN(C(=O)C4(OCC(=O)O)CC4)CC3)c3cnc(-c4nnc(C(F)F)s4)n3c2)CC1` [Example 382, 2-(1-(4-(3-(5-(difluoromethyl)-1,3,4-thiadiazol-2-yl)-6-(N-(1-methylcyclopropyl)sulfamoyl)imidazo[1,5-a]pyridin-8-yl)piperazine-1-carbonyl)cyclopropoxy)acetic acid], the IC50 was found to be 6.55 nM at PARG and 828 nM in the experiment with HCC1806 (HCC1806, 7 days, CellTiter-Glo).
Turning to `CC1(NS(=O)(=O)c2cc(N3CCN(C(=O)C4(OCCO)CC4)CC3)c3cnc(-c4nnc(C(F)(F)F)s4)n3c2)CC1` [Example 383, 8-(4-(1-(2-hydroxyethoxy)cyclopropane-1-carbonyl)piperazin-1-yl)-N-(1-methylcyclopropyl)-3-(5-(trifluoromethyl)-1,3,4-thiadiazol-2-yl)imidazo[1,5-a]pyridine-6-sulfonamide], the IC50 against PARG amounted to 0.25 nM; in the experiment with HCC1806 (HCC1806, 7 days, CellTiter-Glo), 14.8 nM.
For the molecule `CN(C)CCOC1(C(=O)N2CCN(c3cc(S(=O)(=O)NC4(C)CC4)cn4c(-c5nnc(C(F)(F)F)s5)ncc34)CC2)CC1` [Example 384, 8-(4-(1-(2-(dimethylamino)ethoxy)cyclopropane-1-carbonyl)piperazin-1-yl)-N-(1-methylcyclopropyl)-3-(5-(trifluoromethyl)-1,3,4-thiadiazol-2-yl)imidazo[1,5-a]pyridine-6-sulfonamide], the IC50 on PARG is less than 0.15 nM; in the experiment on HCC1806 (HCC1806, 7 days, CellTiter-Glo), 17.6 nM.
Regarding `CN(C)CCCOC1(C(=O)N2CCN(c3cc(S(=O)(=O)NC4(C)CC4)cn4c(-c5nnc(C(F)(F)F)s5)ncc34)CC2)CC1` [Example 385, 8-(4-(1-(3-(dimethylamino)propoxy)cyclopropane-1-carbonyl)piperazin-1-yl)-N-(1-methylcyclopropyl)-3-(5-(trifluoromethyl)-1,3,4-thiadiazol-2-yl)imidazo[1,5-a]pyridine-6-sulfonamide], the IC50 against PARG turned out to be 0.48 nM; with HCC1806, 40 nM.
As to `C[C@@H]1CN(c2cc(S(=O)(=O)NC3CC3)cn3c(-c4nnc(C(F)(F)F)s4)nnc23)CCN1C(=O)C1(C)CC1` [Example 386, (R)—N-cyclopropyl-8-(3-methyl-4-(1-methylcyclopropane-1-carbonyl)piperazin-1-yl)-3-(5-(trifluoromethyl)-1,3,4-thiadiazol-2-yl)-[1,2,4]triazolo[4,3-a]pyridine-6-sulfonamide], the IC50 against PARG was 263 nM; with HCC1806 (HCC1806, 7 days, CellTiter-Glo) it was 7880 nM.
The matching figures for `CC(C)C(=O)N1CCN(c2cc(S(=O)(=O)NC3CC3)cn3c(-c4nnc(C(F)(F)F)s4)nnc23)CC1` [Example 387, N-cyclopropyl-8-(4-isobutyrylpiperazin-1-yl)-3-(5-(trifluoromethyl)-1,3,4-thiadiazol-2-yl)-[1,2,4]triazolo[4,3-a]pyridine-6-sulfonamide]: 38 nM and 800 nM.
Turning to `CC(C)C(=O)N1CCN(c2cc(S(=O)(=O)NC3(C)CC3)cn3c(-c4nnc(C(F)(F)F)s4)nnc23)CC1` [Example 388, 8-(4-isobutyrylpiperazin-1-yl)-N-(1-methylcyclopropyl)-3-(5-(trifluoromethyl)-1,3,4-thiadiazol-2-yl)-[1,2,4]triazolo[4,3-a]pyridine-6-sulfonamide], the IC50 worked out at 10 nM against PARG and 320 nM in the experiment on HCC1806 (HCC1806, 7 days, CellTiter-Glo).
In the same order, the values of `CC(C)C(=O)N1CC2(C=C(c3nc(-c4nnc(C(F)(F)F)s4)n4cc(S(=O)(=O)NC5(C#N)CC5)ccc34)CC2)C1` [Example 389, N-(1-cyanocyclopropyl)-1-(2-isobutyryl-2-azaspiro[3.4]oct-5-en-6-yl)-3-(5-(trifluoromethyl)-1,3,4-thiadiazol-2-yl)imidazo[1,5-a]pyridine-6-sulfonamide] are 20 nM and 2130 nM.
In the same order, the values of `CC(C)C(=O)N1CCN(c2c(F)c(S(=O)(=O)NC3(C#N)CC3)cn3c(-c4nnc(C(F)(F)F)s4)ncc23)CC1` [Example 390, N-(1-cyanocyclopropyl)-7-fluoro-8-(4-isobutyrylpiperazin-1-yl)-3-(5-(trifluoromethyl)-1,3,4-thiadiazol-2-yl)imidazo[1,5-a]pyridine-6-sulfonamide] are 28.2 nM and 793 nM.
In the same order, the values of `[2H]C([2H])([2H])OCC1CN(c2cc(S(=O)(=O)NC3(C)COC3)cn3c(-c4nnc(C(F)F)s4)nc(Cl)c23)CCN1` (centres unmarked) [Example 391, 1-chloro-3-(5-(difluoromethyl)-1,3,4-thiadiazol-2-yl)-8-(3-((methoxy-d3)methyl)piperazin-1-yl)-N-(3-methyloxetan-3-yl)imidazo[1,5-a]pyridine-6-sulfonamide] are 5.01 nM and 177 nM.
In the case of `[2H]C([2H])([2H])OCC1CN(c2cc(S(=O)(=O)NC3(C)COC3)cn3c(-c4nnc(C(F)F)s4)ncc23)CCN1` (centres unmarked) [Example 392, 3-(5-(difluoromethyl)-1,3,4-thiadiazol-2-yl)-8-(3-((methoxy-d3)methyl)piperazin-1-yl)-N-(3-methyloxetan-3-yl)imidazo[1,5-a]pyridine-6-sulfonamide], the IC50 is 11 nM on PARG and 132 nM with HCC1806 (HCC1806, 7 days, CellTiter-Glo).
With `CN1CC2CN(c3cc(S(=O)(=O)NC4(C)COC4)cn4c(-c5nnc(C(F)(F)F)s5)ncc34)CCN2C(=O)C12CC2` (centres unmarked) [Example 393, 8-(2′-methyl-4′-oxohexahydro-4′H,8′H-spiro[cyclopropane-1,3′-pyrazino[1,2-a]pyrazin]-8′-yl)-N-(3-methyloxetan-3-yl)-3-(5-(trifluoromethyl)-1,3,4-thiadiazol-2-yl)imidazo[1,5-a]pyridine-6-sulfonamide], the IC50 against PARG was determined as 5.75 nM; in the experiment on HCC1806 (HCC1806, 7 days, CellTiter-Glo), 222 nM.
For the molecule `CC1(NS(=O)(=O)c2cc(N3CCN4C(=O)NCC4C3)c3cnc(-c4nnc(C(F)(F)F)s4)n3c2)COC1` (centres unmarked) [Example 394, N-(3-methyloxetan-3-yl)-8-(3-oxohexahydroimidazo[1,5-a]pyrazin-7(1H)-yl)-3-(5-(trifluoromethyl)-1,3,4-thiadiazol-2-yl)imidazo[1,5-a]pyridine-6-sulfonamide], the IC50 on PARG turned out to be 6.56 nM; in the experiment on HCC1806 (HCC1806, 7 days, CellTiter-Glo), 1700 nM.
Take `C[C@H]1CN(c2cc(S(=O)(=O)NC3(C)COC3)cn3c(-c4nnc(C(F)F)s4)ncc23)C[C@H](CO)O1` [Example 396, 3-(5-(difluoromethyl)-1,3,4-thiadiazol-2-yl)-8-((2R,6S)-2-(hydroxymethyl)-6-methylmorpholino)-N-(3-methyloxetan-3-yl)imidazo[1,5-a]pyridine-6-sulfonamide]: the IC50 against PARG came out at 2.08 nM; with HCC1806 (HCC1806, 7 days, CellTiter-Glo), 36.8 nM.
The matching figures for `C[C@H]1CN(c2cc(S(=O)(=O)NC3(C)COC3)cn3c(-c4nnc(C(F)F)s4)ncc23)C[C@H](CN(C)C)O1` [Example 398, 3-(5-(difluoromethyl)-1,3,4-thiadiazol-2-yl)-8-((2S,6S)-2-((dimethylamino)methyl)-6-methylmorpholino)-N-(3-methyloxetan-3-yl)imidazo[1,5-a]pyridine-6-sulfonamide]: 27.5 nM and 992 nM.
Regarding `COC1(C(=O)N2[C@@H](C)CN(c3cc(S(=O)(=O)NC4(C)COC4)cn4c(-c5nnc(C(F)F)s5)ncc34)C[C@@H]2C)CC1` [Example 399, 3-(5-(difluoromethyl)-1,3,4-thiadiazol-2-yl)-8-((3S,5S)-4-(1-methoxycyclopropane-1-carbonyl)-3,5-dimethylpiperazin-1-yl)-N-(3-methyloxetan-3-yl)imidazo[1,5-a]pyridine-6-sulfonamide], the IC50 turned out to be 12.6 nM against PARG and 755 nM in the experiment with HCC1806 (HCC1806, 7 days, CellTiter-Glo).
